Three compounds from the NIST ThermoML archive (doi:10.1016/j.fluid.2008.01.010) can be followed below.

Numbers after ± are expanded uncertainties.

Usually mass density stands for the mass of a sample divided by its volume. For orientation: refractive index means the speed of light in vacuum divided by its phase velocity in the sample.

For series [1] the following is noted: 298.15 K; 101.33 kPa; Liquid.
The nature of series [2]: refractive index (Na D-line) (dimensionless). The settings on record: 298.15 K; 101.33 kPa; Liquid; Standard Abbe refractometry.

As for `CC(C)CO` [2-methyl-1-propanol], the mass density in series [1] was 797.83 ± 0.48 kg/m3. Further, the refractive index in series [2] stood at 1.3938 ± 0.0005.
Take `CC(=O)OCC(C)C` [2-methylpropyl ethanoate]: the mass density in series [1] was 866.12 ± 0.67 kg/m3. Also, the refractive index in series [2] amounted to 1.3876 ± 0.0006.
The corresponding values for `OCC(O)CO` [glycerol] are 1258.5 ± 0.6 kg/m3 and 1.4726 ± 0.0005.
